Results as given in publication PMC9027957, “Interspecies Comparisons of the Effects of Potential Antiviral 3-Amidinophenylalanine Derivatives on Cytochrome P450 1A2 Isoenzyme” (Veterinary Sciences, 2022).
Like-named read-outs stand apart in the source and are kept apart here.

Experiments:
CYP1A2 [1] = target: T1, CYP1A2 (Canis lupus familiaris, UniProt P56592); test: CYP1A2 fluorometric activity assay in beagle hepatic microsomes; type: in vitro ADME; conditions: beagle, dog, 15 min, 50 µM
T1 construct: endogenous in cells; host or cells: beagle hepatocytes
T1 sequence (P56592 1-512): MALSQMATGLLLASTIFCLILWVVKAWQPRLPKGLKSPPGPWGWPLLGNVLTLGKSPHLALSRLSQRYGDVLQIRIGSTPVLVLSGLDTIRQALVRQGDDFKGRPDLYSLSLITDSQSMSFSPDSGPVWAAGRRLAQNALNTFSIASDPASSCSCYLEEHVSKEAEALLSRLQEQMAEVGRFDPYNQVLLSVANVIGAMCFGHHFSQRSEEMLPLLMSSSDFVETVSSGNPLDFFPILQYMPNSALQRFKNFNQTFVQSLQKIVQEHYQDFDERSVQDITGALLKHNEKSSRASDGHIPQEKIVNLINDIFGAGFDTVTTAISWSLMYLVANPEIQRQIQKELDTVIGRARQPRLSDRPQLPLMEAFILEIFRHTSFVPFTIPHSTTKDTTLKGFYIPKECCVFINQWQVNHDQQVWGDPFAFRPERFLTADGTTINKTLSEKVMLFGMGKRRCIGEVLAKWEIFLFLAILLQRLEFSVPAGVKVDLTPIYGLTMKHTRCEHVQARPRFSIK
Protocol: (§1) The Biovision CYP assay (BioVision, Inc., Kampenhout, Belgium) utilizes a non-fluorescent CYP1A2 substrate capable of transforming into a highly fluorescent metabolite, which can be detected in the visible range. α-naphthoflavone was used as a CYP1A2 reference inhibitor at 6 µM during the experiments. Rat (Sprague–Dawley) and beagle (Gibco, Biocenter, Szeged, Hungary, protein concentration: 20 mg/mL) hepatic microsomal preparations were prepared separately by mixing 25 µL of the obtained rat or beagle microsomal suspension with 2425 µL assay buffer and with 50 µL NADPH generating system (100×). In the case of the cynomolgus monkey microsomal suspension (Primacyt, Schwerin, Germany, protein concentration: 5 mg/mL), the following volumes were applied: in addition to 100 µL of monkey microsomal suspension, the amount of assay buffer and the NADPH generating system were adjusted in order to ensure the original ratios of these components to reach a final volume of 2500 µL. Rat, beagle, and cynomolgus monkey microsomal suspension aliquots (50 µL) were treated with the protease inhibitor 20 µL, 0–1000 µM), the reference compound α-naphthoflavone (20 µL, 30 µM), or the assay buffer without test compounds (20 µL, background control) for 15 min at 37 °C. After incubation, 30 µL of the appropriate CYP1A2 substrate/NADP+ mixture was added to each well, yielding a final reaction volume of 100 µL/well. The protein contents of the obtained microsomes were analysed using bicinchoninic acid protein assay kit (Pierce BCA kit, Thermo Fisher Scientific, Waltham, MA, USA). […] The fluorescence intensities were measured with a fluorometer (Victor X2 2030, Perkin Elmer, Waltham, MA, USA), using λEx/Em = 406/468 nm.

CYP1A2 [2] = target: T1, CYP1A2; type: cell-based; conditions: dog, 2 h
Protocol: For the measurements of CYP1A2 activities, hepatocytes were grown on 24-well collagen-coated membrane inserts (Costar Transwell-PTFE membrane, 6.5 mm, pore size: 0.4 µm, Merck, Darmstadt, Germany). […] The determination of the CYP1A2 activities were performed using the P450-Glo CYP450 Assay (Promega, Madison, WI, USA) according to the manufacturer’s instructions.

[3] = system: chicken hepatic cell model; conditions: cited from earlier work
CYP1A2 [4] = target: T2, CYP1A2 (Rattus norvegicus, UniProt P04799); test: CYP1A2 fluorometric activity assay in rat hepatic microsomes; type: in vitro ADME, rat (Sprague–Dawley); parameters: Rat (Sprague–Dawley) and beagle (Gibco, Biocenter, Szeged, Hungary, protein concentration: 20 mg/mL) hepatic microsomal preparations; tissue Gibco, Biocenter, Szeged, Hungary; host or cells: liver (hepatic microsomes), Sprague-Dawley rat
T2 sequence (P04799 1-513): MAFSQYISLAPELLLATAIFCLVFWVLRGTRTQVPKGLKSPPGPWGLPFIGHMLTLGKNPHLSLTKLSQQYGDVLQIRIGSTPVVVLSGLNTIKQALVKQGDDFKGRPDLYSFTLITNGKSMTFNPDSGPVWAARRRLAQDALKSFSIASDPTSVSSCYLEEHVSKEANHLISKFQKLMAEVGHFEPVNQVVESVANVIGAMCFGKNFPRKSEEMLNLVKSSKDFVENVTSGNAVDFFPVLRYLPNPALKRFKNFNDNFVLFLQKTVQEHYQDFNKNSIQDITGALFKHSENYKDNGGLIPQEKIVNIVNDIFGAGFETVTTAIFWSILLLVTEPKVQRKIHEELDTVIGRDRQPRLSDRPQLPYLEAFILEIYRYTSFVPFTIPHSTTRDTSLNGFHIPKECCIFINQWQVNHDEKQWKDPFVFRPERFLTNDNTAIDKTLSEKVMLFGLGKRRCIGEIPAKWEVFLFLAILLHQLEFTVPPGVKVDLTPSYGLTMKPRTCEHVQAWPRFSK
Protocol: as §1

rat hepatocytes = test: MTS cytotoxicity assay in rat primary hepatocytes; type: cell-based; conditions: 50 μM and 100 μM, 24 h
Protocol: (§2) Rat, beagle, and cynomolgus monkey cryopreserved primary hepatocytes were obtained from Primacyt Cell Culture Company (Schwerin, Germany). The thawing, plating, and maintenance media were purchased from Lonza Group Ltd. (Biocenter Ltd., Szeged, Hungary). Influence of inhibitors MI-432 and MI-1900 on the viability of primary […] hepatocytes was tested. Hepatocytes, grown on a 96-well plate for 24 h, were incubated with the inhibitors at 0, 50, and at 100 µM for 24 h in treated groups. The control cells were incubated only with cell maintenance medium. After removal of the medium and three-fold washing of the cells with phosphate-buffered saline (PBS), 20 μL aliquots of CellTiter 96 AQueous one solution (MTS, Promega, Bioscience, Budapest, Hungary) were pipetted into a 96-well plate, each containing 100 μL of phenol red free medium. The plate was incubated with dye for 2 h. Viability of hepatocytes was measured at 490 nm using an EZ Read Biochrom 400 microplate reader.

beagle hepatocytes = test: MTS cytotoxicity assay in beagle primary hepatocytes; type: cell-based; conditions: 50 μM and 100 μM, 24 h
Protocol: as §2

[5] = system: cynomolgus monkey hepatocytes; test: MTS cytotoxicity assay in cynomolgus monkey primary hepatocytes; type: cell-based; conditions: 50 μM and 100 μM, 24 h
Protocol: as §2

[6] = system: intestinal epithelial cells (HIEC and IPEC-J2) and primary human hepatocytes (PHH); conditions: up to a concentration 50 μM; cited from earlier work
[7] = system: intestinal epithelial cells; conditions: up to a concentration 50 μM; cited from earlier work

Row | Compound | beagle hepatic microsomal CYP1A2 isoenzyme activity (CYP1A2 [1]) | CYP1A2 function in beagle hepatocytes (CYP1A2 [2]; 20 µM) | CYP1A2 function in beagle hepatocytes (CYP1A2 [2]; 50 µM) | redox homeostasis [3] | rat hepatic microsomal CYP1A2 isoenzyme activity (CYP1A2 [4]; Sprague-Dawley, rat, 15 min, 50 µM) | cell viability vs control (rat hepatocytes) | cell viability vs control (beagle hepatocytes) | cell viability vs control [5] | cell death [6] | extracellular hydrogen peroxide levels [7] | rat hepatic microsomal CYP1A2 isoenzyme activity (CYP1A2 [4]; inhibitors at 50 µM, 15 min at 37 °C, vs untreated control)
1 | N=C(N)c1cccc(C[C@H](NS(=O)(=O)c2cccc(-c3ccc(Cl)cc3Cl)c2)C(=O)N2CCC(CCN)CC2)c1 [MI-432] | reduced the activity of CYP1A2 | significantly inhibited CYP1A2 function | significantly inhibited CYP1A2 function | only transiently disturbed | did not inhibit CYP1A2 function | – | – | – | – | – | –
2 | COc1ccc(-c2cccc(S(=O)(=O)N[C@@H](Cc3cccc(C(=N)N)c3)C(=O)N3CCN(C(=O)NC4CCCCC4)CC3)c2)c(OC)c1 [MI-1900] | – | – | – | – | – | No significant differences | No significant differences | No significant differences | did not cause significant cell death | did not result in elevation in extracellular hydrogen peroxide levels | suppressed
